Assay results taken from patent US4292428A, “Cephalosporin derivatives” (Hoffmann-La Roche Inc., priority 1978, dated 1981).
Where two headings read alike, the source gives them in different places.

Tests used:
Escherichia coli = test: Activity in vivo: mice infected intraperitoneally with Escherichia coli, survival on the 4th day; conditions: 96 h, survivors on 4th day, by interpolation, read-out: CD50 (dosage at which 50% of the mice survive)
Procedure: Groups of 5 mice are infected intraperitoneally with an aqueous suspension of Escherichia coli. The derivative to be tested is administered orally or subcutaneously 1, 2.5 and 4 hours after the infection. The number of surviving mice is determined on the 4th day. Various dosages of the derivative are administered and the dosage at which 50% of the mice survive (CD50, mg/kg) is determined by interpolation.

[1] = Toxicity (mice, 24 hour value); conditions: mouse, in vivo, po
Procedure: |Toxicity: (mice, 24 hour value)

[2] = oral, 1, 2.5 and 4 hours after intraperitoneal infection
[3] = sc, subcutaneous, 1, 2.5 and 4 hours after intraperitoneal infection

Structure (SMILES)	ED50 (Escherichia coli; [2])	ED50 (Escherichia coli; [3])	LD50 at 24 h [1]
CON=C(C(=O)NC1C(=O)N2C(C(=O)OCOC(=O)C(C)(C)C)=C(CSc3nc(=O)c(OCOC(=O)C(C)(C)C)nn3C)CSC12)c1ccco1 [Derivative B, Methylene-(6R,7R)-3-{[[2,5-dihydro-2-methyl-5-oxo-6-[(pivaloyloxy)methoxy]-as-triazin-3-yl]thio]methyl}-7-[2-(2-furyl)-2-(methoxyimino)acetamido]-8-oxo-5-thia-1-azabicyclo[4.2.0]oct-2-ene-2-carboxylate pivalate (Z-isomer)]	0.03 mg/kg	0.02 mg/kg	1250 to 2500 mg/kg
CON=C(C(=O)NC1C(=O)N2C(C(=O)OCOC(=O)C(C)(C)C)=C(CSc3n[nH]c(=O)c(=O)n3C)CSC12)c1ccco1 [Derivative A, Methylene-(6R,7R)-7-[2-(2-furyl)-2-(methoxyimino)-acetamido]-8-oxo-3-[[(1,4,5,6-tetrahydro-4-methyl-5,6-dioxo-as-triazin-3-yl)thio]methyl]-5-thia-1-azabicyclo-[4.2.0]oct-2-ene-2-carboxylate pivalate (Z-isomer)]	0.05 mg/kg	0.02 mg/kg	2500 to 5000 mg/kg
